Laboratory results published in US8895502B2, “β2-glycoprotein I peptide inhibitors” (Kansas State University Research Foundation, priority 2010, dated 2014).
“Also recorded” adds a separate entry of the source. Ends that are not written are not given here.

Columns and labels:
C57Bl/6 mice = assay: Intestinal ischemia/reperfusion, mucosal injury score; assay type: in vivo, mouse; parameters: key to Injury: + indicates significant difference from Sham treated mice; − indicates not significantly different from C57B1/6 sham treated mice; +/− indicates no significant difference from either C57B1/6 mice subjected to either Sham or IR; details: for IR-induced intestinal mucosal damage (injury score): C57Bl/6 mice, peptide 40 μM i.v. 5 min prior to ischemia, 2 hours reperfusion; for IR-induced intestinal injury: Example 2, peptides administered after reperfusion (15-, 30-, or 60-minutes post-reperfusion)
Procedure: (§1) C57Bl/6 and Rag-1^−/− mice were subjected to ischemia followed by reperfusion similar to previously described studies (Moses, T. et al., J. Leukoc. Biol. 86:971-980 (2009)). Briefly, ketamine (16 mg/kg) and xylazine (80 mg/kg) were used to anesthetize the mice. Buprenorphine (0.06 mg/kg) was then administered for pain. A midline laparotomy was performed to expose the abdominal cavity of the mice, which were then allowed to equilibrate for 30 min. Body temperature was maintained at 37° C. using a water-circulating heat pad. Placing a warm, saline moistened piece of gauze over the abdominal cavity prevented peritoneal desiccation. […] Ischemia was noted by the intestine changing from a pink color to a gray color. After 30 min of ischemia, the clamp was removed and the intestines were allowed to reperfuse for 5, 10, 15, or 120 min. […] Mice treated with the various β2-GPI peptides underwent the same procedure with i.v. administration of the peptides (40 μM) 5 min prior to artery occlusion. Peptides 296, 305, and 296Cys to Ser were dissolved in N. Saline (0.9% NaCl) and injected i.v. in 100-μL volumes. Peptides 100 and 181 were dissolved in DMSO prior to diluting 1/100 in N. Saline. Additional mice received peptides prior to Sham treatment.
Immediately after euthanasia, a 2-cm mid jejunum tissue section was immediately fixed in 10% buffered formalin, embedded in paraffin, and 8 μm sections were cut transversely and hematoxylin and eosin (H&E) stained. Mucosal injury was graded on a six-tiered scale, as described previously (Fleming, S. D. et al., J. Immunol. 169:2126-2133 (2002)). Briefly, the average damage score of the intestinal section (75-150 villi) was determined after grading each villus. […] Photomicrographs were obtained from H&E stained slides using a 20×, 0.5 Plan Fluor objective on a Nikon 80i microscope and images acquired at room temperature using a Nikon DS-5M camera with DS-L2 software.
(§2) Ischemia/reperfusion was performed on ketamine/xylazine anesthetized mice as described in Example 1 above. After 2 hours of reperfusion, the mice were euthanized and sera, liver, spleen, and 2 cm sections of the small intestine, approximately 10 cm distal to the gastroduodenal junction, were collected for histological and other analyses. Mice treated with the various β2-GPI peptides underwent the same procedure with i.v. administration of the peptides. Most studies assumed 2 mL total blood volume in a mouse and administered peptides to a final concentration of 40 μM at 5 min prior to ischemia. Dose response studies administered 1-40 μM peptide at 5 min prior to ischemia and time course studies administered 40 μM peptide at 5 min prior to ischemia, and at 15-, 30- or 60-min post-ischemia (i.e., during reperfusion).
After euthanasia, tissue sections were fixed and stained following the procedures outlined in Example 1. Mucosal injury (SMI) was also graded on a six-tiered scale, as described in Example 1.

CD31 (PECAM-1) = assay: Intestinal IR, CD31 immunohistochemistry; assay type: in vivo, mouse; parameters: key to CD31 Deposition: + indicates significant difference from Sham treated mice; − indicates not significantly different from C57B1/6 sham treated mice; +/− indicates no significant difference from either C57B1/6 mice subjected to either Sham or IR; details: for CD31 Deposition: C57Bl/6 mice subjected to IR, peptide 40 μM i.v. 5 min prior to artery occlusion; for expression of adhesion molecule CD31 after IR: C57Bl/6 mice, peptide prior to IR
Procedure: as §1
After euthanasia, an additional 2-cm intestinal section from each mouse was immediately snap frozen in O.C.T. freezing medium and 8 μm sections were placed on slides for immunohistochemistry. The C3 deposition and F4/80 expression on the tissue sections were detected by staining with a purified rat-anti-mouse C3 (Hycult Biotechnologies; Plymouth Meeting, Pa.) or F4/80 (eBioscience; San Diego, Calif.) antibody followed by a Texas-red conjugated donkey-anti-rat IgG secondary antibody (Jackson Immunoresearch). CD31 (PECAM-1) and CD106 (VCAM-1) were detected by FITC conjugated rat anti-mouse CD31 or CD106 (Biolegend; San Diego, Calif.) antibodies. Each experiment contained serial sections stained with the appropriate isotype control antibodies. All slides were mounted with ProLong Gold (Invitrogen). Images were obtained at room temperature using a Nikon Eclipse 80i microscope equipped with a CoolSnap CF camera (Photometrics) and analyzed using Metavue software (Molecular Devices). The fluorescence was semi-quantitated using Image J software (NIH) using the fluorescent area fraction after setting threshold for each experiment. The average of the isotype control was subtracted from each photo.

IL-6 = assay: Intestinal IR, ex vivo IL-6 generation; assay type: in vivo, mouse; parameters: key to IL-6 Induction: + indicates significant difference from Sham treated mice; − indicates not significantly different from C57B1/6 sham treated mice; +/− indicates no significant difference from either C57B1/6 mice subjected to either Sham or IR; details: for IL-6 Induction: C57Bl/6 mice subjected to IR, peptide 40 μM i.v. 5 min prior to artery occlusion; for IR induced IL-6 production: C57Bl/6 mice, peptide prior to IR
Procedure: as §1
Ex vivo generation of eicosanoids by mid-jejunal tissue was determined. Immediately after collection, a 2-cm intestinal section from each mouse was minced, washed, resuspended in 37° C. oxygenated Tyrode's buffer (Sigma-Aldrich; St. Louis, Mo.), incubated at 37° C. for 20 minutes, and the supernatant collected. PGE2 and LTB4 concentrations were determined using enzyme immunoassay kits (Cayman Chemical; Ann Arbor, Mich.). IL-6 and IL-12 concentrations were determined using a Milliplex MAP immunoassay kit (Millipore) and read on a Milliplex Analyzer (Millipore). All eicosanoid and cytokine concentrations were standardized to the total tissue protein content.
(§3) Total peroxidase, LTB4, PGE2, IL-6, IL-12p40, and IL-12p70 concentrations were determined using the procedures described in Example 1.

peroxidase = assay: Intestinal IR, total tissue peroxidase; assay type: in vivo, mouse; details: for total peroxidase production by the intestinal tissues: administered up to 60 min post-reperfusion
Procedure: as §2, §3

[1] = system: thioglycollate-elicited macrophages, nitric oxide; assay: β2-GPI stimulated macrophage nitric oxide production; assay type: cell-based; details: mouse β2-GPI 10 μg/mL, peptide 40 μM, 18 hours
Procedure: C57Bl/6 mice were injected i.p. with 1 mL thioglycollate (4%) 4 days prior to peritoneal lavage. Peritoneal exudate macrophages or the B cell line, LK35.2, were seeded at 2×10^6 cells/mL in 24-well or 96-well plates. After macrophage adherence, both cell types were treated with mouse β2-GPI (10 μg/mL) with or without peptide (40 μM). Additional cells were unstimulated as a negative control or stimulated with 10 μg/mL LPS (E. coli 055B5) as a positive control. Supernatants were collected 18-20 hours after stimulation and analyzed for nitrite by Griess reagent (Hoffman & Fleming, Cell Biochem. Funct. 28:686-694 (2010)) or IL-6 by Milliplex MAP kit (Millipore) following the manufacturer's instructions using a Luminex 200 with xPONENT 3.1 and Analyst software (Millipore).

[2] = C57Bl/6 mice subjected to IR, peptide 40 μM i.v. 5 min prior to artery occlusion
[3] = 10 μM peptide 5 min prior to IR
[4] = administered at 60 min post-reperfusion
[5] = administered at either 5- or 15-min post-reperfusion, 2-hour assay
[6] = treatment at both 30 min and 60 min post-reperfusion
[7] = dose response, similar concentrations of each peptide
[8] = peptide administered prior to IR

| Substance | Injury (C57Bl/6 mice; [2]) | IR-induced intestinal mucosal damage (injury score) (C57Bl/6 mice) | CD31 Deposition (CD31 (PECAM-1)) | expression of adhesion molecule CD31 after IR (CD31 (PECAM-1)) | IL-6 Induction (IL-6) | IR induced IL-6 production (IL-6) | intestinal damage (C57Bl/6 mice; 4 μM peptide 5 min prior to IR) | Injury (C57Bl/6 mice; [3]) | IR-induced intestinal mucosal damage (injury score) (C57Bl/6 mice; listed as 296c-s) | IR-induced intestinal injury (C57Bl/6 mice) | intestinal injury (C57Bl/6 mice; [4]) | intestinal injury (C57Bl/6 mice; [5]) | intestinal injury (C57Bl/6 mice; [6]) | total peroxidase production by the intestinal tissues (peroxidase) | intestinal peroxidase production (peroxidase; [7]) | intestinal peroxidase production (peroxidase; [8]) | β2-GPI-induced nitric oxide production [1] |
| --- | --- | --- | --- | --- | --- | --- | --- | --- | --- | --- | --- | --- | --- | --- | --- | --- | --- |
| H-KNISFACNPGFFLNG-NH2 [peptide 100, 16, reference compound] | + | IR-induced intestinal damage similar to untreated mice | + | significantly different from both Sham and IR treated mice | +/− | attenuated IL-6 production |  |  |  |  |  |  |  |  |  |  |  |
| H-IHFYSKNKEKKSSYTVEAHSRDGTI-OH [peptide 296Cys-Ser] | − | attenuated mucosal damage; also recorded: confirmed to attenuate injury | − | inhibited | − | attenuated; also recorded: inhibit | attenuated | optimally attenuated | attenuate actual epithelial injury more effectively | effective for attenuating | attenuated | effective in preventing intestinal injury | significantly decreased | significantly decreased | attenuated | significantly attenuated | significantly attenuated |
| H-KKCSYTVEAHCRDGTIEIPSCFKEHS-OH (cysteine pairing not given here) [peptide 305, 10] | − | attenuated mucosal damage | + | inhibited | − | attenuated; also recorded: inhibited |  | optimally attenuated |  | effective for attenuating | attenuated | effective in preventing intestinal injury | significantly decreased | significantly decreased | attenuated | significantly attenuated | significantly attenuated |
| H-IHFYCKNKEKKCSYTVEAHCRDGTI-OH (cysteine pairing not given here) [peptide 296] | − | attenuated mucosal damage | − | inhibited | − | attenuated; also recorded: inhibit |  |  |  |  |  |  |  |  |  |  |  |
| H-IPSCFKEHSSLAFWKTDASELTPC-NH2 (cysteine pairing not given here) [peptide 322, 18] | + | IR-induced intestinal damage similar to untreated mice | + |  | + | did not inhibit |  |  |  |  |  |  |  |  |  |  |  |
